From ChEMBL document CHEMBL1201862, “PubChem BioAssay data set” (2004)
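Values below derive from 48-hour exposures of cells grown in 96-well plates, with endpoints linearly interpolated between the two concentrations bracketing the appropriate inhibition level. GI50: concentration for 50% inhibition of growth.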 The source made the active and inactive calls. Cut-off read from the data, not from the text of the source: active = GI50 up to about 1.1 µM and inactive = higher.

Assays:
Test in all cases: DTP human tumour cell line panel, 48 h
UO-31 = tested on: UO-31
SF-539 = tested on: SF-539
A549 = tested on: A549
T47D = tested on: T47D
TK-10 = tested on: TK-10
MDA-MB-435 = tested on: MDA-MB-435
PC-3 = tested on: PC-3
HCT-116 = tested on: HCT-116
786-0 = tested on: 786-0
SK-MEL-5 = tested on: SK-MEL-5
RPMI-8226 = tested on: RPMI-8226
SR = tested on: SR
ACHN = tested on: ACHN
OVCAR-3 = tested on: OVCAR-3
SK-MEL-28 = tested on: SK-MEL-28
HOP-92 = tested on: HOP-92
CCRF-CEM = tested on: CCRF-CEM
MDA-N = tested on: MDA-N
Malme-3M = tested on: Malme-3M
K562 = tested on: K562

Measured: GI50

COc1ccc(C2N(c3ccc(F)cc3)C(=O)N3C(c4ccc(OC)cc4)N(c4ccc(F)cc4)C(=O)N23)cc1 (configuration not stated)
inactive: UO-31 > 100 µM | SF-539 > 100 µM | A549 > 100 µM | T47D > 100 µM | TK-10 > 100 µM | MDA-MB-435 > 100 µM | PC-3 > 100 µM | HCT-116 > 100 µM | 786-0 > 100 µM | SK-MEL-5 > 100 µM | RPMI-8226 > 100 µM | SR 34 µM | ACHN > 100 µM | OVCAR-3 > 100 µM | SK-MEL-28 > 100 µM | HOP-92 > 100 µM | CCRF-CEM > 100 µM | MDA-N > 100 µM | Malme-3M > 100 µM

CCOP(=O)(OCC)/C(C#N)=C/c1cccn1C
inactive: UO-31 41.6 µM | SF-539 > 100 µM | A549 > 100 µM | T47D > 100 µM | TK-10 > 100 µM | MDA-MB-435 > 100 µM | PC-3 > 100 µM | HCT-116 > 100 µM | 786-0 > 100 µM | SK-MEL-5 > 100 µM | RPMI-8226 > 100 µM | SR > 100 µM | ACHN > 100 µM | OVCAR-3 > 100 µM | SK-MEL-28 > 100 µM | HOP-92 > 100 µM | CCRF-CEM 25.9 µM | MDA-N > 100 µM | Malme-3M > 100 µM

Cc1cc(S(=O)(=O)Nc2nc(-c3ccccn3)n[nH]2)c(S)cc1Cl
inactive: UO-31 2.67 µM | SF-539 21.7 µM | A549 12.9 µM | T47D 15.3 µM | TK-10 10 µM | MDA-MB-435 25.1 µM | PC-3 31.1 µM | HCT-116 16.1 µM | 786-0 12.1 µM | SK-MEL-5 8.55 µM | RPMI-8226 33.7 µM | SR 24.3 µM | ACHN 15.8 µM | OVCAR-3 17.2 µM | SK-MEL-28 35.1 µM | HOP-92 19 µM | MDA-N 42.2 µM | Malme-3M 18.1 µM

N#C/C(=C\c1ccccc1)C(=O)Nc1nnc(-c2ccccc2)o1
inactive: UO-31 29.4 µM | A549 34.1 µM | T47D 31.3 µM | TK-10 > 100 µM | MDA-MB-435 37.8 µM | PC-3 42.1 µM | HCT-116 33.3 µM | 786-0 53 µM | SK-MEL-5 19 µM | RPMI-8226 19.2 µM | SR 25.6 µM | ACHN 35.6 µM | OVCAR-3 14.8 µM | SK-MEL-28 39.9 µM | HOP-92 47.9 µM | CCRF-CEM 17.9 µM | K562 26.4 µM | MDA-N 35.4 µM | Malme-3M 31 µM

CSc1nc(SC)c2c(C)cn(COCCOC(=O)c3ccccc3)c2n1
inactive: UO-31 44.3 µM | SF-539 27.3 µM | A549 > 100 µM | T47D 32.8 µM | TK-10 > 100 µM | MDA-MB-435 > 100 µM | PC-3 74.5 µM | HCT-116 83 µM | 786-0 > 100 µM | SK-MEL-5 > 100 µM | RPMI-8226 69.5 µM | SR > 100 µM | ACHN > 100 µM | OVCAR-3 > 100 µM | SK-MEL-28 > 100 µM | HOP-92 41.5 µM | CCRF-CEM 64.1 µM | MDA-N > 100 µM | Malme-3M > 100 µM

Cc1cc2c(c(C(=O)NCCC(=O)O)c1)Oc1c(cc(C)cc1C(=O)NCCC(=O)O)S2
inactive: SF-539 > 100 µM | A549 > 100 µM | T47D > 100 µM | TK-10 > 100 µM | MDA-MB-435 > 100 µM | PC-3 > 100 µM | HCT-116 > 100 µM | 786-0 > 100 µM | RPMI-8226 > 100 µM | SR > 100 µM | ACHN > 100 µM | OVCAR-3 > 100 µM | SK-MEL-28 > 100 µM | HOP-92 > 100 µM | CCRF-CEM > 100 µM | K562 > 100 µM | MDA-N > 100 µM | Malme-3M > 100 µM
